Data on 14 compounds can be found in DBAASP.

Values after ≈ are worked out from the molar mass of the structure shown. Values joined by “and” are separate entries in the source; they are usually repeats but may differ in a detail not shown here. Equal values may be shown once. Some results are limits rather than exact numbers.

For orientation: MIC means the lowest concentration that inhibits growth of the organism. A lower MIC goes with inhibition by little substance.

Test systems include Escherichia coli; Staphylococcus aureus; Candida albicans; Escherichia coli UB1005.
Common to all, as to test: ≥ marks a high value that may be exact or a test limit, other limits are often not marked, values filed in µg/mL are converted to µM
The subject of experiment [1] is Staphylococcus aureus ATCC 6538.
The test system of experiment [2] is Pseudomonas aeruginosa ATCC 9027.
Experiment [3] concerns Staphylococcus aureus NCTC 10788.
For experiment [4], the system named is Escherichia coli ATCC 25922.
Experiment [5] has as its system Candida albicans ATCC 90028.
The subject of experiment [6] is Staphylococcus aureus ATCC 25923.
The subject of experiment [7] is Salmonella enterica subsp. enterica serovar Typhimurium C77-31.
The subject of experiment [8] is Staphylococcus aureus ATCC 29213.
The subject of experiment [9] is Staphylococcus epidermidis ATCC 12228.
Experiment [10] relates to Pseudomonas aeruginosa ATCC 27853.
The test system of experiment [11] is Candida albicans ATCC 2002.

Consider `CC(C)C[C@H](NC(=O)[C@H](C)NC(=O)[C@H](CCCCN)NC(=O)[C@H](CCCCN)NC(=O)[C@H](Cc1ccccc1)NC(=O)[C@H](C)NC(=O)[C@H](CCCCN)NC(=O)[C@H](C)NC(=O)[C@H](Cc1ccccc1)NC(=O)[C@H](CC(C)C)NC(=O)[C@H](CCCCN)NC(=O)[C@H](C)NC(=O)[C@@H](N)Cc1ccccc1)C(N)=O` [FAKLFAKAFKKAL], for which the MIC in experiment [1] is 67.4 µM (≈ 99.9 µg/mL); in experiment [2] it was 135 µM (≈ 200 µg/mL).

Take `CC(C)C[C@H](NC(=O)[C@H](Cc1ccccc1)NC(=O)[C@H](CCCCN)NC(=O)[C@H](CCCCN)NC(=O)[C@H](CC(C)C)NC(=O)[C@H](C)NC(=O)[C@H](CCCCN)NC(=O)[C@H](C)NC(=O)[C@H](CC(C)C)NC(=O)[C@H](CC(C)C)NC(=O)[C@H](CCCCN)NC(=O)[C@H](C)NC(=O)[C@@H](N)Cc1ccccc1)C(N)=O` [FAKLLAKALKKFL]: the MIC stood at 6.71 µM (≈ 9.99 µg/mL) in experiment [1] and 67.1 µM (≈ 99.9 µg/mL) in experiment [2].

For the compound `CC(C)C[C@H](NC(=O)[C@H](CCCCN)NC(=O)[C@H](CCCCN)NC(=O)[C@H](CC(C)C)NC(=O)[C@H](C)NC(=O)[C@H](CCCCN)NC(=O)[C@H](C)NC(=O)[C@H](CC(C)C)NC(=O)[C@H](CC(C)C)NC(=O)[C@H](CCCCN)NC(=O)[C@H](C)NC(=O)[C@@H](N)Cc1ccccc1)C(N)=O` [FAKLLAKALKKL], the MIC in [1] stood at 7.44 µM (≈ 9.99 µg/mL); in experiment [2], 18.6 µM (≈ 25 µg/mL).

Regarding `CC(C)C[C@H](NC(=O)[C@H](C)NC(=O)[C@H](CCCCN)NC(=O)[C@H](CCCCN)NC(=O)[C@H](CC(C)C)NC(=O)[C@H](Cc1ccccc1)NC(=O)[C@H](CCCCN)NC(=O)[C@H](C)NC(=O)[C@H](CC(C)C)NC(=O)[C@H](CC(C)C)NC(=O)[C@H](CCCCN)NC(=O)[C@H](C)NC(=O)[C@@H](N)Cc1ccccc1)C(N)=O` [FAKLLAKFLKKAL], the MIC in experiment [1] was determined as 6.71 µM (≈ 9.99 µg/mL); in experiment [2] it was 134 µM (≈ 200 µg/mL).

Regarding `CC[C@H](C)[C@H](NC(=O)[C@H](CC(C)C)NC(=O)[C@H](CCCCN)NC(=O)CNC(=O)[C@@H](NC(=O)[C@@H](N)Cc1ccccc1)[C@@H](C)CC)C(=O)N[C@@H](CO)C(=O)N[C@@H](C)C(=O)N[C@@H](C)C(=O)N[C@@H](CO)C(=O)NCC(=O)N[C@@H](CC(C)C)C(=O)N[C@@H](CC(C)C)C(=O)N[C@@H](CO)C(=O)N[C@@H](Cc1cnc[nH]1)C(=O)N[C@@H](CC(C)C)C(N)=O` [FIGKLISAASGLLSHL], the MIC with Escherichia coli was 38.4 µM (≈ 62.4 µg/mL); in the experiment with Staphylococcus aureus, 9.5 µM (≈ 15.4 µg/mL); in the experiment on Candida albicans, 150 µM (≈ 244 µg/mL).

Take `CC(C)C[C@H](NC(=O)[C@H](CC(C)C)NC(=O)[C@H](CO)NC(=O)CNC(=O)[C@H](CC(C)C)NC(=O)[C@H](CC(C)C)NC(=O)CNC(=O)[C@H](CC(C)C)NC(=O)[C@@H](N)Cc1ccccc1)C(N)=O` [FLGLLGSLL]: the MIC in experiment [3] was ≥ 34 µM.

In the case of `CC[C@H](C)[C@@H]1NC(=O)[C@H](CCCCN)NC(=O)[C@@H](NC(=O)[C@H](CCCCN)NC(=O)[C@H](CC(C)C)NC(=O)[C@H](CCCCN)NC(=O)[C@H](CC(=O)O)NC(=O)[C@H](CC(C)C)NC(=O)[C@H](CCSC)NC(=O)[C@H](CCC(N)=O)NC(=O)CNC(=O)[C@H](C)NC(=O)[C@H](CC(C)C)NC(=O)[C@H](CC(N)=O)NC(=O)[C@H](CCCCN)NC(=O)[C@H](C)NC(=O)[C@H](C)NC(=O)[C@H](CC(N)=O)NC(=O)[C@H](CCCCN)NC(=O)[C@@H](NC(=O)[C@@H](NC(=O)[C@H](CC(=O)O)NC(=O)[C@H](CCSC)NC(=O)[C@H](CC(C)C)NC(=O)CN)[C@@H](C)O)C(C)C)CSSC[C@@H](C(=O)O)NC(=O)[C@H](CO)NC(=O)CNC(=O)[C@H]([C@@H](C)O)NC1=O` [GLMDTVKNAAKNLAGQMLDKLKCKITGSC], the figures for the MIC in experiment [4], in experiment [5] and in experiment [6] were 50 µM (≈ 153 µg/mL), ≥ 100 µM and > 200 µM, respectively.

For `CC[C@H](C)[C@H](NC(=O)[C@H](Cc1c[nH]c2ccccc12)NC(=O)[C@H](CCCCN)NC(=O)[C@H](CC(C)C)NC(=O)[C@@H](NC(=O)[C@H](CCCCN)NC(=O)CNC(=O)[C@@H](NC(=O)[C@H](CCCCN)NC(=O)[C@H](CCCCN)NC(=O)[C@H](CC(C)C)NC(=O)[C@H](CCCN=C(N)N)NC(=O)[C@H](CCCCN)NC(=O)[C@H](CCCN=C(N)N)NC(=O)[C@@H](NC(=O)[C@H](CCCCN)NC(=O)[C@H](CCCCN)NC(=O)[C@H](CCCN=C(N)N)NC(=O)[C@H](CC(C)C)NC(=O)[C@H](CCCN=C(N)N)NC(=O)[C@H](CCCN=C(N)N)NC(=O)[C@H](Cc1ccccc1)NC(=O)[C@H](CCCN=C(N)N)NC(=O)CN)[C@@H](C)O)[C@@H](C)CC)C(C)C)C(N)=O` [GRFRRLRKKTRKRLKKIGKVLKWI], the MIC in [4] was 1 µM and 2 µM; in experiment [7], 1 µM (≈ 3.06 µg/mL); in experiment [6] it was 4 µM (≈ 12.3 µg/mL); in experiment [8], 2 µM (≈ 6.13 µg/mL); in [9], 2 µM (≈ 6.13 µg/mL); in the experiment on Escherichia coli UB1005 it was 2 µM (≈ 6.13 µg/mL).

Regarding `CC[C@H](C)[C@H](NC(=O)[C@H](CCCN=C(N)N)NC(=O)[C@H](CCCCN)NC(=O)[C@@H](NC(=O)[C@H](CCCCN)NC(=O)[C@H](CCCN=C(N)N)NC(=O)[C@@H](N)CCCCN)C(C)C)C(=O)N[C@@H](CCCCN)C(=O)N[C@@H](CCCCN)C(=O)N[C@@H](Cc1ccccc1)C(=O)N[C@@H](CC(C)C)C(=O)N[C@@H](CCCN=C(N)N)C(=O)O` [KRKVKRIKKFLR], the minimum inhibitory concentration (MIC) is 0.625 µM (≈ 1 µg/mL) in experiment [4], 1.25 µM (≈ 2 µg/mL) in experiment [5], 20 µM (≈ 32 µg/mL) in experiment [8] and 2.5 µM (≈ 4 µg/mL) in experiment [10].

On to `CC[C@H](C)[C@H](NC(=O)[C@@H](NC(=O)[C@@H](NC(=O)[C@@H]1CCCN1C(=O)[C@H](Cc1c[nH]c2ccccc12)NC(=O)[C@H](Cc1ccccc1)NC(=O)[C@H](CCCN=C(N)N)NC(=O)[C@H](CCCCN)NC(=O)[C@@H](NC(=O)[C@@H](N)CCCN=C(N)N)[C@@H](C)CC)C(C)C)C(C)C)C(=O)N[C@@H](CCCN=C(N)N)C(=O)O` [RIKRFWPVVIR], for which the MIC in experiment [11] is ≥ 102 µM.

Consider `CC[C@H](C)[C@H](NC(=O)[C@H](CCCCN)NC(=O)[C@H](CS)NC(=O)[C@H](C)NC(=O)[C@@H](NC(=O)[C@H](Cc1ccccc1)NC(=O)CNC(=O)[C@H](CC(C)C)NC(=O)CNC(=O)[C@@H](NC(=O)[C@H](CCCCN)NC(=O)CNC(=O)[C@H](CC(C)C)NC(=O)[C@H](CC(N)=O)NC(=O)[C@H](CCCCN)NC(=O)[C@H](CC(C)C)NC(=O)[C@@H](NC(=O)[C@H](C)NC(=O)[C@H](CC(C)C)NC(=O)[C@H](CCSC)NC(=O)[C@@H](N)CO)C(C)C)C(C)C)C(C)C)C(=O)N[C@@H](CC(N)=O)C(=O)N[C@@H](CCCCN)C(=O)N[C@@H](CCC(N)=O)C(=O)N[C@@H](CS)C(=O)O` [SMLAVLKNLGKVGLGFVACKINKQC], for which the MIC against Escherichia coli was 10 µM (≈ 26.4 µg/mL); in the experiment with Staphylococcus aureus, 100 µM (≈ 264 µg/mL); against Candida albicans, 100 µM (≈ 264 µg/mL).

In the case of `CC[C@H](C)[C@H](NC(=O)[C@H](CCCCN)NC(=O)[C@H](CO)NC(=O)[C@H](C)NC(=O)[C@@H](NC(=O)[C@H](Cc1ccccc1)NC(=O)CNC(=O)[C@H](CC(C)C)NC(=O)CNC(=O)[C@@H](NC(=O)[C@H](CCCCN)NC(=O)CNC(=O)[C@H](CC(C)C)NC(=O)[C@H](CC(N)=O)NC(=O)[C@H](CCCCN)NC(=O)[C@H](CC(C)C)NC(=O)[C@@H](NC(=O)[C@H](CO)NC(=O)[C@H](CC(C)C)NC(=O)[C@H](CCSC)NC(=O)[C@@H](N)CO)C(C)C)C(C)C)C(C)C)C(=O)N[C@@H](CC(N)=O)C(=O)N[C@@H](CCCCN)C(=O)N[C@@H](CCC(N)=O)C(=O)N[C@@H](CO)C(=O)O` [SMLSVLKNLGKVGLGFVASKINKQS], the results for the minimal inhibitory concentration (MIC) in the experiment on Escherichia coli, in the experiment on Staphylococcus aureus and with Candida albicans were 20 µM (≈ 52.4 µg/mL), 100 µM (≈ 262 µg/mL) and 100 µM (≈ 262 µg/mL), respectively.

Turning to `CC[C@H](C)[C@H](NC(=O)[C@H](C)NC(=O)[C@H](CCCN=C(N)N)NC(=O)[C@H](Cc1ccc(O)cc1)NC(=O)[C@H](CC(C)C)NC(=O)[C@H](CC(N)=O)NC(=O)[C@H](Cc1ccc(O)cc1)NC(=O)CNC(=O)[C@H](C)NC(=O)[C@@H](NC(=O)[C@@H](NC(=O)[C@@H](NC(=O)[C@H](CCCN=C(N)N)NC(=O)[C@@H](NC(=O)[C@@H](N)C(C)C)[C@@H](C)CC)[C@@H](C)O)C(C)C)C(C)C)C(=O)N[C@@H](CCCCN)C(=O)N[C@@H](CCCCN)C(=O)N[C@@H](CCCCN)C(=O)O` [VIRTVVAGYNLYRAIKKK], the MIC in experiment [11] is ≥ 35.8 µM.

Consider `CC[C@H](C)[C@H](NC(=O)[C@H](C)NC(=O)[C@H](CCCN=C(N)N)NC(=O)[C@H](Cc1ccc(O)cc1)NC(=O)[C@H](CC(C)C)NC(=O)[C@H](CC(N)=O)NC(=O)[C@H](Cc1ccc(O)cc1)NC(=O)CNC(=O)[C@H](C)NC(=O)[C@@H](NC(=O)[C@@H](NC(=O)[C@@H](NC(=O)[C@H](CCCN=C(N)N)NC(=O)[C@@H](NC(=O)[C@@H](NC(=O)[C@@H](N)C(C)C)C(C)C)[C@@H](C)CC)[C@@H](C)O)C(C)C)C(C)C)C(=O)N[C@@H](CCCCN)C(=O)N[C@@H](CCCCN)C(=O)N[C@@H](CCCCN)C(=O)O` [VVIRTVVAGYNLYRAIKKK], for which the minimal inhibitory concentration (MIC) in experiment [11] came to 25.7 µM (≈ 56.3 µg/mL).
